Patent publication US12606520B2, “Calpain-2 inhibitor compounds and methods of treatment” (WESTERN UNIVERSITY OF HEALTH SCIENCES, priority 2020, dated 2026)

How the values were obtained:
cell death in cortex = experiment: Cell death in cortex 24 h after TBI in rats; format: in vivo; conditions: 1 mg/kg i.p. at 1 h and 8 h after TBI
Protocol: (§1) We also performed the same model of TBI in male and female mice and in male and female rats. In all cases, NA184 was injected i.p. at 1 mg/kg. For the rat experiments, NA184 was injected twice at 1 h and 8 h after TBI. Animals were sacrificed 24 h after TBI and calpain activity was assayed in brain and cell death was analyzed in cortex. […] In addition, there was a highly significant correlation between calpain-2 activity and cell death in rats (FIG. 23). R^2 was 0.61 and p<0.005.

calpain-2 = biological target: T1, calpain-2 (Rattus norvegicus, UniProt Q07009); experiment: Calpain-2 activity in brain after TBI in rats; format: in vivo; conditions: 1 mg/kg i.p. at 1 h and 8 h after TBI, 24 h after TBI
T1 construct: from tissue; host or cells: rat brain after TBI
T1 sequence (Q07009 1-700): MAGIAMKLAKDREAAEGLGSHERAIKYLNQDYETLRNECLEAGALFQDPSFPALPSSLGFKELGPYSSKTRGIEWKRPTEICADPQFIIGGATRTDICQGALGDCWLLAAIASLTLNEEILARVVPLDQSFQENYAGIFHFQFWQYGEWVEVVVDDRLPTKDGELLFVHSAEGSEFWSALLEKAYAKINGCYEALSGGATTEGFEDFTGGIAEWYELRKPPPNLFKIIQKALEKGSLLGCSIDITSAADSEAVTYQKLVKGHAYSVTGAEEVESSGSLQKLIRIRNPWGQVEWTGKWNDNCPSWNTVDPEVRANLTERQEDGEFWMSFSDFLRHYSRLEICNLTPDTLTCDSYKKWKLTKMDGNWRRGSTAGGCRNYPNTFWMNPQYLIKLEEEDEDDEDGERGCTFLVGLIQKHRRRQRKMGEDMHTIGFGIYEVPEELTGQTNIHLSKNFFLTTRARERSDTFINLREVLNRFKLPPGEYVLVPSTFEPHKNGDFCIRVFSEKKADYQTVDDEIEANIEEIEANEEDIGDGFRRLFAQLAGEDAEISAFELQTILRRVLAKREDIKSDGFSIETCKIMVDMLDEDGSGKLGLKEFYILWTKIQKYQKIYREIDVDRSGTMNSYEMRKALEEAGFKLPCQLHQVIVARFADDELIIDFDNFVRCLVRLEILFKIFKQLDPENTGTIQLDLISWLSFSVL
T1 sequence (Q64537 1-270 partner): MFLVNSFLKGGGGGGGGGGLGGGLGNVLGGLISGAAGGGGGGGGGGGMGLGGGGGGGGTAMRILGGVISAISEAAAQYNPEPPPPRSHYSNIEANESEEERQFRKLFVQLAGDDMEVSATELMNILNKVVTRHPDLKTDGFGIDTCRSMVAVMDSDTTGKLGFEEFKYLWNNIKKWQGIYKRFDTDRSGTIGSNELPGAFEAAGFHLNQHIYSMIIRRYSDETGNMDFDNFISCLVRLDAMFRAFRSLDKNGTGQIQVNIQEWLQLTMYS
Protocol: as §1

[1] = PK in mice after iv injection of liposomal NA112: brain; format: in vivo; conditions: mice iv 10 mg/kg liposomes, 24 hr; BLQ: below the limit of quantification, assay sensitivity 2 ng/ml
calpain-1 = biological target: T2, calpain-1 (Mus musculus, UniProt O35350); experiment: Calpain-1 activity in WT mouse cerebellar homogenate (20 μM Ca2+), Suc-Leu-Tyr-AMC cleavage; format: biochemical; design: from tissue; host or cells: wild-type mouse cerebellar (P2) homogenate; conditions: 20 μM calcium, read-out: IC50, 20 μM Ca^2+ (Calpain-1)
T2 sequence (O35350 1-713): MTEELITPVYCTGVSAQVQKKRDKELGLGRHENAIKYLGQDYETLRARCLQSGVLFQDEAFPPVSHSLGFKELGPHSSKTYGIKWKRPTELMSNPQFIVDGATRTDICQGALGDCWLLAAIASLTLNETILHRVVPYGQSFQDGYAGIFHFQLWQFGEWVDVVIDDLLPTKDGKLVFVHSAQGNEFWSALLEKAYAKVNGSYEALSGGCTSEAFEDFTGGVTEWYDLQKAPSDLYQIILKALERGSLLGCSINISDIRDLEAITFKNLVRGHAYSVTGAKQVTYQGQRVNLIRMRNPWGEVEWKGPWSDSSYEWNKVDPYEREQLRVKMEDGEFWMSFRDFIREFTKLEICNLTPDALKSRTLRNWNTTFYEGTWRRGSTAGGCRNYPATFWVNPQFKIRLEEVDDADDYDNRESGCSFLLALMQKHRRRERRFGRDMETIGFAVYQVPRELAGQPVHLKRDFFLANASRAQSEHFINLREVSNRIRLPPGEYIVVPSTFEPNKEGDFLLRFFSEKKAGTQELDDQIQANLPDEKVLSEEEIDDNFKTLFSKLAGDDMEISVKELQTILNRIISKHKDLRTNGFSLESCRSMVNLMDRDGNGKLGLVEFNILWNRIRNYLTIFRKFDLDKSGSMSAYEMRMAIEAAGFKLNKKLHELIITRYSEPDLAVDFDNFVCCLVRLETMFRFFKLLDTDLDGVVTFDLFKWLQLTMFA
T2 sequence (O88456 1-268 partner): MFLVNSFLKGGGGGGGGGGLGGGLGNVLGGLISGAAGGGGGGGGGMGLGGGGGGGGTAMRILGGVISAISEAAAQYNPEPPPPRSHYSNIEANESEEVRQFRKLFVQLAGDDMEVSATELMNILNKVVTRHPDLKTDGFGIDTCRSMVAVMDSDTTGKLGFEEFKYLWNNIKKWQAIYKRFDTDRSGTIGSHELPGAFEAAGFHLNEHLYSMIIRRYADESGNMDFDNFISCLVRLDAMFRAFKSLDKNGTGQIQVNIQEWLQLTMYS
Protocol: Cerebellar homogenates from wild-type (WT) or calpain-1 Knock-out (KO) mice were incubated with 20 μM calcium to activate calpain-1 or with 2 mM calcium to activate calpain-2, respectively, and increasing concentrations of NA112 (12). Calpain activity was measured by the cleavage of Succinyl-Leu-Tyr-7-amino-4-methylcoumarin (Suc-Leu-Tyr-AMC), resulting in increased fluorescence. Activity is normalized to the value measured in the presence of vehicle (DMSO).
WT or calpain-1 KO mouse cerebellar P2 homogenate (crude synaptosomal fraction) were used for measuring inhibitory activity of compounds against the mouse endogenous calpain-1/-2. Each reaction contains 100 ul of WT or calpain-1 KO mouse cerebellar P2 homogenate+0, 20 or 2000 uM Ca^2++0-10,000 nM NA184.
Calpain-1 activity=calpain activity under 20 uM Ca^2+ in WT mice

CCC(NC(=O)[C@H](CC(C)C)NC(=O)NCc1ccccc1)C(=O)C(=O)NCc1cccc(Cl)c1OC (stereo partly drawn) [NA184, (2S)-2-(3-benzylureido)-N-(1-((3-chloro-2-methoxybenzyl)amino)-1,2-dioxopentan-3-yl)-4-methylpentanamide]
Cell death in cortex, male and female rats (cell death in cortex): significantly prevented cell death
Calpain-2 inhibition in brain, male and female rats (calpain-2): significantly inhibited calpain-2

CCC(NC(=O)[C@H](CC(C)C)NC(=O)NCc1ccccc1)C(=O)C(=O)NCc1cc(OC)cc(OC)c1 (mixture of isomers) [NA112, (2S)-2-(3-benzylureido)-N-(1-((3,5-dimethoxybenzyl)amino)-1,2-dioxopentan-3-yl)-4-methylpentanamide]
Brain concentration A1 [1]: BLQ
Brain concentration A2 [1]: BLQ
Brain concentration Mean [1]: BLQ
IC50 (calpain-1): 1380 nM
